Data reported in US20030028906A1, “Gene control” (priority 1995, published 2003).

What was measured:
[1] = tested on: CYP1A1/β-galactosidase promoter/reporter; assay: β-galactosidase staining of tissue sections from transgenic mice carrying pAhIR1β-gal after 3-MC induction; settings: for β-Galactosidase staining intensity: mice carrying pAHIR1, 3-MC 40 μg/g once a day for 3 days; for induction of lacZ expression in the liver: 9 kb rat CYP1A1 promoter-lacZ transgenic mice, IP 40 mg/kg for 3 days, 40 mg/kg
Description: The protocol described below has been adapted to analyse the β-galactosidase expression from transgenic mice and in this regard determine the activity of the P450 1A1 promoter which is effectively driving the expression of this transgene in response to induction of P450 1A1 by the carcinogenic agent 3-methylcholanthrene. All timings in this protocol are critical.
When performing this technique it is essential to incorporate a positive control into the reaction where a tissue sample which is a known expresser of β-galactosidase is treated in an identical manner to that of the test tissues. […] The positive control used in these experiments was a small intestine sample which was a known high expressor of the detection enzyme.
1) The mouse under test was killed by cervical dislocation and the organs required were removed using a sterile scalpel. A small representative piece of mouse organ was fixed on to moistened cork using commercial adhesive. The tissue sample on the cork was then frozen in liquid nitrogen chilled freezing spray (Histological Supplies LTD) for approximately 30 seconds. The tissue sample was then double wrapped in parafilm, placed in a plastic bag, sealed and snap frozen in liquid nitrogen.
4) The metal chuck was placed in the cryostat holder and turned until the tip of the tissues touched the front of the cutting blade. The cryostat was set to obtain small sections approximately 8 microns thickness. By turning the handle of the cryostat small sections of tissue were obtained. Sections were continually taken until a representative section of tissue was obtained. The antiroll plate was then placed against the blade and a section to be harvested was cut.
9) Slides were produced as described using the cryostat and the tissue was fixed in 0.5% glutaraldehyde (in PBS) for 1 day at 4° C. 10) The tissue was then incubated in PBS +2mM MgCl2+30% sucrose at 4° C. overnight.
13) 2-3 hours in X-gal solution at 37° C. or even overnight.
19) The slides were then mounted in DPX and viewed under a microscope. It was important at this stage that the slides were never permitted to dry out since this will affect the quality of the results. The slides should be continually dipped into the histoclear solution to prevent this occurring while the slides are being prepared.
The expected results from the β-galacotsidase staining assay are areas of pink which uniformly stain the tissue section and small areas of blue in the tissue section which indicate areas where X-gal has been metabolised by the β-galactosidase enzyme.
The inducibility of expression. The pAhIR1βgal transgene in the liver was examined after administration of 3-methylcholanthrene (3-mc). The inducing agent was administered IP at a dosage of 40 mg/kg for 3 days and the animals were sacrificed for expression on day four. The induction in the transgenic animals was controlled by:
a) administration of corn oil to transgenic mice,
b) the administration of 3-methylcholanthrene (3-mc) to non-transgenic littermates.
lacZ expression was also investigated in a number of other tissues. The same procedure for sectioning and staining tissue sections was employed.

[2] = tested on: CYP1A1 dioxin-responsive promoter coupled to CAT reporter gene; settings: 2.58 kbp mouse CYP1A1 fragment-CAT transgenic mice, cited from earlier work
β-galactosidase activity = assay: β-galactosidase staining of tissue sections from non-transgenic controls treated with 3-MC; format: in vivo, mouse
Description: All timings in this protocol are critical.

Ah receptor = assay: Induction of the transgene in C57 BL6 mice; format: in vivo, mouse
Description: (§1) In addition to the use of this promoter as a general regulatable system for the expression of transgenes this strategy can be exploited to obtain expression targeted to specific cell types. Thus, for example, when the transgene is incorporated into cells containing a modified hydrocarbon receptor, the inducability of the transgene is modulated. […] In addition, the introduction of an Ah receptor responsive to 3-methylcholanthrene into a specific cell, e.g. through the use of a tissue-specific promoter element, will allow tissue-specific induction of a transgene in this mouse on administration of 3-methylcholanthrene. This strategy exploits the fact that the Ah receptor in DBA mice through mutation is non-responsive to certain classes of agents which induce by this mechanism. […] Therefore, using a combination of different forms of the Ah receptor with different types of inducing agent will allow much more precise regulation of transgene expression in cells.

modified Ah receptor = assay: Induction of the transgene in DBA mice; format: in vivo, mouse
Description: as §1

Structure (SMILES): Cc1ccc2cc3c(ccc4ccccc43)c3c2c1CC3 [3-methylcholanthrene]
- β-Galactosidase staining intensity ([1]; Adrenal gland): +++
- β-Galactosidase staining intensity ([1]; Colon): +
- β-Galactosidase staining intensity ([1]; Duodenum): +++
- β-Galactosidase staining intensity ([1]; Forestomach): +
- β-Galactosidase staining intensity ([1]; Ileum): +++
- β-Galactosidase staining intensity ([1]; Jejunum): +++
- β-Galactosidase staining intensity ([1]; Kidney): ++
- 3-mc induced lacZ expression in tissues ([1]; Liver, Kidney, Brain (specific regions), Duodenum, Jejunum, Ileum, Lung, Spleen, Oesophagus, Colon, Pancreas, Adrenal Gland, Ovary): detected
- β-Galactosidase staining intensity ([1]; Liver): ++++
- β-Galactosidase staining intensity ([1]; Lung): +
- β-Galactosidase staining intensity ([1]; Oesophagus): ++
- β-Galactosidase staining intensity ([1]; Ovary): +
- β-Galactosidase staining intensity ([1]; Pancreas): +
- β-Galactosidase staining intensity ([1]; Spleen): ++
- β-Galactosidase staining intensity ([1]; Stomach): +
- β-Galactosidase staining intensity ([1]; Testes): +
- induction of lacZ expression in the liver ([1]; listed as 3-mc): very high
- induction of lacZ expression in the liver ([1]; listed as 3-methyl-cholanthene): massive induction
- induction of expression in spleen and bowel ([1]; spleen and bowel, 9 kb rat CYP1A1 promoter transgenic mice): substantial induction
- increase of hepatic expression levels (CAT reporter) ([2]; liver, versus mock-induction): ≤ 10,000 fold
- induction of CAT expression ([2]; spleen, small bowel, kidney and lung): More modest levels of induction
- β-Galactosidase staining intensity (β-galactosidase activity; Duodenum): +
- β-Galactosidase staining intensity (β-galactosidase activity; Ileum): +
- β-Galactosidase staining intensity (β-galactosidase activity; Jejunum): +
- β-Galactosidase staining intensity (β-galactosidase activity; Kidney): +
- induction of the transgene (Ah receptor): an inducer of the transgene
- induction of the transgene (modified Ah receptor): not an inducer of the transgene

Structure (SMILES): Clc1cc2c(cc1Cl)Oc1cc(Cl)c(Cl)cc1O2 [tetrachlorodibenzodioxin]
- induction of the transgene (modified Ah receptor): induction can still be obtained
